How the values were obtained:
[1] = system: CA20948 tumor xenograft-bearing mice; experiment: SPECT/CT tumor uptake of 177Lu-DOTATATE; type: in vivo; settings: dynamic SPECT imaging after intravenous administration, one mouse
CA20948 tumor xenografts = experiment: In vivo 177Lu tumor dosimetry from SPECT VOI analysis; set-up: species or system mice; settings: single exponential fit of tumour time-activity data; mean ± SD

time at which maximum tumor uptake was reached [1]: 60 min
mean effective half-life of clearance from the tumor xenografts (CA20948 tumor xenografts): 46.3 ± 8.6 h
Compound: C[C@@H](O)[C@H](NC(=O)[C@@H]1CSSC[C@H](NC(=O)[C@@H](Cc2ccccc2)NC(=O)CN2CCN(CC(=O)O)CCN(CC(=O)O)CCN(CC(=O)O)CC2)C(=O)N[C@@H](Cc2ccc(O)cc2)C(=O)N[C@H](Cc2c[nH]c3ccccc23)C(=O)N[C@@H](CCCCN)C(=O)N[C@@H]([C@@H](C)O)C(=O)N1)C(=O)O [^177Lu-DOTATATE, (DOTA^0-Tyr^3)-octreotate, metal not drawn]

Reference: article PMC7198382 (Journal of nuclear medicine : official publication, Society …, 2019)
